Assay results published in ChEMBL document CHEMBL1145137, “Design, synthesis, and crystal structure of selective 2-pyridone tissue factor VIIa inhibitors” (J Med Chem, 2003).

Assays:
Coagulation factor X = Coagulation factor X (Homo sapiens, UniProt P00742); assay: Inhibitory concentration against human Coagulation factor X
Prothrombin = Prothrombin (Homo sapiens, UniProt P00734); assay: Inhibitory concentration against human thrombin
Coagulation factor VII = target: T1, Coagulation factor VII (Homo sapiens, UniProt P08709); assay: Inhibitory concentration against recombinant human coagulation factor VII
T1 sequence (P08709 whole entry): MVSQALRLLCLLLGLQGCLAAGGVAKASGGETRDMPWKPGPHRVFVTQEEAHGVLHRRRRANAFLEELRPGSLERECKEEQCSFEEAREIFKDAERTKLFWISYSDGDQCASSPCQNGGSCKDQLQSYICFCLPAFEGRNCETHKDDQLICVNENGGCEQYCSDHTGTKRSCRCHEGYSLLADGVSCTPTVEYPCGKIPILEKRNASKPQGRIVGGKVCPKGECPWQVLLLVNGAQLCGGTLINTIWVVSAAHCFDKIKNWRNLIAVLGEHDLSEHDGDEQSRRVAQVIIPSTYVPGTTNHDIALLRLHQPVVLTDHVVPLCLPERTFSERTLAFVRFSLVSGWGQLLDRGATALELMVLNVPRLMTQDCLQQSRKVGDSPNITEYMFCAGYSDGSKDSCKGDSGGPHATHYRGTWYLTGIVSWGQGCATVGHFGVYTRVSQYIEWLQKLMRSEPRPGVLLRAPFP

Coagulation factor X, sequence (P00742 41-179 limits assumed): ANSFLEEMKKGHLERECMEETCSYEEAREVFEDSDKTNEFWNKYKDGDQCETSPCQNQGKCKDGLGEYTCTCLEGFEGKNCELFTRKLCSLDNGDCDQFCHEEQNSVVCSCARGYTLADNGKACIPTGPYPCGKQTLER
Coagulation factor X, sequence (P00742 235-488 limits assumed): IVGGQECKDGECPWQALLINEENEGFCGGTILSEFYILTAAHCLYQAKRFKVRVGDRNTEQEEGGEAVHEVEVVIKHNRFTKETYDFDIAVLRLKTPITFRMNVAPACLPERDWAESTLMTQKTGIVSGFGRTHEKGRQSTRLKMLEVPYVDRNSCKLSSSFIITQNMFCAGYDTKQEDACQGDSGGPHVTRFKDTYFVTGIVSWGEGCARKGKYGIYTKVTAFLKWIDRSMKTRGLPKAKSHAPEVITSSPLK

CC(C)Nc1ccc(-c2cc(N)cc(C(=O)O)c2)n(CC(=O)NCc2ccc(C(=N)N)cc2)c1=O
IC50 (Coagulation factor X): > 30000 nM | IC50 (Prothrombin): > 30000 nM | IC50 (Coagulation factor VII): 118 nM

CC(C)Nc1ccc(-c2cc(N)cc(N)c2)n(CC(=O)NCc2ccc(C(=N)N)cc2)c1=O
IC50 (Coagulation factor VII): 52 nM
